Source: patent publication US20220259164A1, “USE OF AMINOTHIOL COMPOUNDS AS CEREBRAL NERVE OR HEART PROTECTIVE AGENT” (SHANGHAI KECHOW PHARMA, INC., priority 2019, published 2022)
Several values for one entry are separate records, joined by “and”; a condition that tells them apart may be missing. Equal entries are not always repeated. Where a SMILES comes first, the peptide text is derived from it. [ ]: non-standard residue; d: D form. NMeC = CN[C@@H](CS)C(=O)O

How the values were obtained:
[1] = test system: bleomycin (BLM)-induced scleroderma mouse model; test: Dermal fibrosis in bleomycin (BLM)-induced scleroderma mouse model (H-E staining); type: in vivo, mice; conditions: compound A (hydrochloride) 600 mg/kg/d by gavage or compound B (trifluoroacetate) 200 mg/kg/d i.p., 28 days with BLM; compared with BLM model group
Description: Materials: C57BL/6 female mice, weighing 20-25 g, were purchased from Shanghai SLAC Laboratory Animal Co., Ltd. Using a random number table method, 24 mice were divided into a blank control group (1), a scleroderma model group (2), a scleroderma+compound A treatment group (3), and a scleroderma+compound B treatment group (4), with 6 mice in each group. Bleomycin (BLM) was purchased from Sigma. An H-E staining kit was purchased from Beijing Solarbio Science & Technology Co., Ltd. Compound A used in this example was in the form of a hydrochloride thereof, and compound B was in the form of a trifluoroacetate thereof.
Method: The intended injection site (area 1 cm^2) of the mice was shaved using an electric shaver. The mice in groups (1) and (2) were intraperitoneally injected with PBS, the mice in group (3) were given compound A (600 mg/kg/d, dissolved in PBS) by gavage, and the mice in group (4) were intraperitoneally injected with compound B (200 mg/kg/d, dissolved in PBS). Immediately thereafter, the mice in group (1) were injected with PBS subcutaneously on the back, and the mice in groups (2) and (4) were injected with BLM (1 mg/ml, dissolved in PBS) subcutaneously on the back; and 15 min later, the mice in group (3) were injected with BLM (1 mg/ml, dissolved in PBS) subcutaneously on the back. After 28 days of continuous administration once a day, the animals were sacrificed on day 29 by cervical dislocation. Conventional iodine tincture was used to disinfect the back skin of the mice, and a local diseased skin tissue was surgically cut, fixed in 4% paraformaldehyde, embedded in paraffin, sectioned, and analyzed by H-E staining.

[2] = test system: SD rat cerebral ischemia reperfusion injury model (MCAO); test: Neurobehavioral evaluation (5-point Longa/Bederson score) in rat ischemic stroke model (MCAO); type: in vivo; parameters: key to Neurological function score After modeling: Longa/Bederson 5-point scale (0-4); higher = more severe deficit; conditions: for Neurological function score After modeling: individual rats
Description: Healthy male SPF grade SD rats (body weight 250-300 g) were selected. […] (2) A midline neck incision was made to expose the right common carotid artery, internal carotid artery and external carotid artery. A 6-0 silk thread was used to ligate the distal end of the external carotid artery at 4 mm from the bifurcation of the common carotid artery, another 6-0 silk thread was inserted at the external carotid artery, and a slipknot was tied near the bifurcation of the common carotid artery. (3) An arterial clamp was used to clamp the common carotid artery. […] (4) The thread embolism was removed 90 min after ischemia, the proximal end of the external artery was ligated with a 6-0 silk thread, the neck wound was sutured with a 3-0 silk thread, the wound was disinfected with povidone iodine, the rats were placed on a heating pad, and after being awake, they were placed in a constant temperature rearing box for rearing. […] The experimental animals were scored for signs of neurological function deficit before and after modeling. The scoring standard was given by reference to the 5-point system of Longa and Bederson. The scoring was performed 24 h after the animals were awake from anesthesia. The higher the score, the more severe the behavioral disorder of the animals. 0 point: No nerve damage symptoms […] Inability to fully extend the contralateral front paw […] Turning in a circle to the opposite side […] Falling over to the opposite side 4 points: Inability to walk spontaneously, and loss of consciousness In a manner same as in Example 1, experimental animals were selected, except that the experiment was divided into seven groups (i.e., groups […], and G, among which groups C, D, and E were given different dosages of administration from Example 1, group F was given edaravone, and group G was given amifostine).

[3] = test system: SD rat cerebral ischemia reperfusion injury model (MCAO); test: TTC staining and cerebral infarction area in rat ischemic stroke model (MCAO); type: in vivo; conditions: for Cerebral infarction area: individual rats
Protocol: Healthy male SPF grade SD rats (body weight 250-300 g) were selected. (1) The rats were anesthetized, the skin on the neck was prepared, and the body temperature was maintained at 37±0.5° C. (2) A midline neck incision was made to expose the right common carotid artery, internal carotid artery and external carotid artery. A 6-0 silk thread was used to ligate the distal end of the external carotid artery at 4 mm from the bifurcation of the common carotid artery, another 6-0 silk thread was inserted at the external carotid artery, and a slipknot was tied near the bifurcation of the common carotid artery. (3) An arterial clamp was used to clamp the common carotid artery. A small opening was cut on the external carotid artery at 3 mm from the bifurcation of the common carotid artery, and a 0.33 mm diameter nylon thread with a treated head end was inserted through the small opening, entered the internal carotid artery, and was inserted inward to the middle cerebral artery, wherein the insertion depth of the nylon thread was about 16±1 mm from the bifurcation of the common carotid artery. (4) The thread embolism was removed 90 min after ischemia, the proximal end of the external artery was ligated with a 6-0 silk thread, the neck wound was sutured with a 3-0 silk thread, the wound was disinfected with povidone iodine, the rats were placed on a heating pad, and after being awake, they were placed in a constant temperature rearing box for rearing. […] After the rats were anesthetized, the brain tissues were taken from the rats, placed in a refrigerator and frozen at -20° C. for 30 min. 1% TTC (W/V) was prepared with PBS and placed in a water bath at 37° C. until the TTC was dissolved, and the frozen brain tissue was sliced, placed in 10 ml of the TTC solution and incubated at 37° C. for 10 min. The brain slices were turned from time to time to make the tissue evenly stained. Normal brain tissue was bright red after staining, whereas the infarction region was pale white in color or light white in a black and white image. In addition, a software was used to measure and statistically analyze the infarction area. In a manner same as in Example 1, experimental animals were selected, except that the experiment was divided into seven groups (i.e., groups […], and G, among which groups C, D, and E were given different dosages of administration from Example 1, group F was given edaravone, and group G was given amifostine).

[4] = Example 1 group E: compound A (trifluoroacetate) 1600 mg/kg p.o. 2.5 h before reperfusion, 1600 mg/kg
[5] = Example 1 group E: compound A (trifluoroacetate) 1600 mg/kg p.o. 2.5 h before reperfusion, 24 h, 1600 mg/kg
[6] = Example 2 group D: compound A (trifluoroacetate) 400 mg/kg p.o. 2.5 h before reperfusion, 400 mg/kg
[7] = Example 2 group E: compound A (trifluoroacetate) 800 mg/kg p.o. 2.5 h before reperfusion, 800 mg/kg
[8] = Example 1 group C: compound B (trifluoroacetate) 200 mg/kg i.p. 5 min before reperfusion, 200 mg/kg
[9] = Example 1 group C: compound B (trifluoroacetate) 200 mg/kg i.p. 5 min before reperfusion, 24 h, 200 mg/kg
[10] = Example 1 group D: compound B (trifluoroacetate) 200 mg/kg i.p. during ischemia and 200 mg/kg i.p. 5 min before reperfusion
[11] = Example 1 group D: compound B (trifluoroacetate) 200 mg/kg i.p. during ischemia and 200 mg/kg i.p. 5 min before reperfusion, 24 h
[12] = Example 2 group C: compound B (trifluoroacetate) 100 mg/kg i.p. 5 min before reperfusion, 100 mg/kg

CNC(=O)[C@H](CS)NC(=O)[C@H](CS)NC [Compound A, (R)-3-mercapto-N—((R)-3-mercapto-1-(methylamino)-1-oxoprop-2-yl)-2-(methylamino)propionamide] (H-[NMeC]-Cys-NHMe)
Collagen in the dermis and fat layer (H-E staining) [1]: the collagen thickness in the dermis was significantly reduced and the fat layer was significantly thickened
Thickness of the dermis in the skin lesion area [1]: could better reduce the thickness of the dermis at the skin lesion site
% Behavioral improvement [2, 4]: 77.8%
Neurological function score After modeling [2, 5]: 1 (2×) and 0
% Behavioral improvement [2, 6]: 46.99%
Neurological function score After modeling [2, 6]: 2 (3×) and 1 (3×)
% Behavioral improvement [2, 7]: 59.01%
Neurological function score After modeling [2, 7]: 1 (5×) and 2
% Improvement of cerebral infarction area [3, 4]: 83.9%
Cerebral infarction area [3, 5]: 40.19 mm^3 and 26.33 mm^3 and 9.18 mm^3
% Improvement of cerebral infarction area [3, 6]: 72.97%
Cerebral infarction area [3, 6]: 25.16 mm^3 and 11.23 mm^3 and 20.59 mm^3 and 15.48 mm^3 and 38.04 mm^3 and 82.75 mm^3
% Improvement of cerebral infarction area [3, 7]: 87.32%
Cerebral infarction area [3, 7]: 14.23 mm^3 and 0 mm^3 (2×) and 16.93 mm^3 and 12.31 mm^3 and 47.18 mm^3

CNC(=O)[C@H](CS)NC(=O)[C@H](CS)NC(=O)[C@H](CS)NC [Compound B, (R)-3-mercapto-N—((R)-3-mercapto-1-(((R)-3-mercapto-1-(methylamino)-1-oxoprop-2-yl)amino)-1-oxoprop-2-yl)-2-(methylamino)propionamide] (H-[NMeC]-Cys-Cys-NHMe)
Collagen in the dermis and fat layer (H-E staining) [1]: collagen proliferation in the dermis in the compound B treatment group was improved
Thickness of the dermis in the skin lesion area [1]: reduced (p<0.01)
% Behavioral improvement [2, 8]: 66.7%
Neurological function score After modeling [2, 9]: 0 and 1 (3×) and 2
% Behavioral improvement [2, 10]: 66.7%
Neurological function score After modeling [2, 11]: 1
% Behavioral improvement [2, 12]: 29.32%
Neurological function score After modeling [2, 12]: 1 and 2 (4×) and 3
% Improvement of cerebral infarction area [3, 8]: 62.5%
Cerebral infarction area [3, 9]: 67.44 mm^3 and 67.69 mm^3 and 32.84 mm^3 and 23.4 mm^3 and 105.9 mm^3
% Improvement of cerebral infarction area [3, 10]: 44.4%
Cerebral infarction area [3, 11]: 67.53 mm^3 and 105.5 mm^3
% Improvement of cerebral infarction area [3, 12]: 59.5%
Cerebral infarction area [3, 12]: 0 mm^3 and 32.568 mm^3 and 45.956 mm^3 and 21.529 mm^3 and 104.008 mm^3 and 85.208 mm^3
